Patent US11242337B2, “Compounds useful for treating gastrointestinal tract disorders” (Ardelyx, Inc., priority 2017, dated 2022)

What was measured:
[1] = human absorption data, from Ertl et al., J. Med. Chem, 2000; cited from earlier work
NHE3 = molecular target: T1, NHE3 (Homo sapiens, UniProt P48764); experiment: persistent inhibition of NHE3 in the cell-based assay of example 181 (4-chloro vs 4-cyano pairs); conditions: for IC50: cell-based assay of example 181, after washout, read-out: pIC50 (persistent) (converted); for Percent Inhibition: cell-based assay of example 181, persistent
T1 construct: expressed in transfected cells
T1 sequence (P48764 26-834): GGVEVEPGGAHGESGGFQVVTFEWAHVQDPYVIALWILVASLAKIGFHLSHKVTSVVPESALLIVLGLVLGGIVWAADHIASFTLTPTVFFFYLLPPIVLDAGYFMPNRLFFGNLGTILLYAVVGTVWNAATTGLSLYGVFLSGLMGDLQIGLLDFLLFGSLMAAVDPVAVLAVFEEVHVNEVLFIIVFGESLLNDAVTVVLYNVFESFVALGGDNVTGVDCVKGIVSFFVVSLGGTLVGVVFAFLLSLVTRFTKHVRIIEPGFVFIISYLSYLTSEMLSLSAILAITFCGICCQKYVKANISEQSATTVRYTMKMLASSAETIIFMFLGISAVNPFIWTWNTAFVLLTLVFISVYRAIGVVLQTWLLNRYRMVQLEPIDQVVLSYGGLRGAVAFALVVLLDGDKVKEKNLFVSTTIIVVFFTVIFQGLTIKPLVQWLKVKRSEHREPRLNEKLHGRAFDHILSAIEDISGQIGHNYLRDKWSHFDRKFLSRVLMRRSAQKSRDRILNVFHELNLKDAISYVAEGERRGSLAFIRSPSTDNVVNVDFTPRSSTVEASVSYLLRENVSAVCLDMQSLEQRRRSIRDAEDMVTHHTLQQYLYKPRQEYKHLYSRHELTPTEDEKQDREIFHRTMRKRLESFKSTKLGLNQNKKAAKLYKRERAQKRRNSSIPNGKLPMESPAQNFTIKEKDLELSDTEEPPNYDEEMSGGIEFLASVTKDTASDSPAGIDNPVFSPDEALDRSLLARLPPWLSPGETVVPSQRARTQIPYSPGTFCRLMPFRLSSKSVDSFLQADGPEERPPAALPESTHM
T1 sequence (Q99653 2-195 partner limits assumed): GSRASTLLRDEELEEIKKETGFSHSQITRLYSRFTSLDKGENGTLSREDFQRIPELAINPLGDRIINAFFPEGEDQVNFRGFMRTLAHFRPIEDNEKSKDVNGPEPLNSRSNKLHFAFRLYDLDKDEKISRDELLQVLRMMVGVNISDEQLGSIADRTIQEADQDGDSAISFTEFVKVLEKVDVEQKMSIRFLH
Procedure: The following pairs of compounds differ only in the 4-position substituent (either chloro (X—Cl) or cyano (X—CN)):
The ability of compounds to inhibit human and rat NHE-3-mediated Na^+ dependent H^+ antiport after application and washout was measured using a modification of the pH sensitive dye method described above. PS120 fibroblasts stably expressing human NHE3 and NHERF2 were obtained from Mark Donowitz (Baltimore, Md.). Opossum kidney (OK) cells were obtained from the ATCC and propagated per their instructions. The rat NHE-3 gene was introduced into OK cells via electroporation, and cells were seeded into 96 well plates and grown overnight. Medium was aspirated from the wells, cells were washed once with NaCl-HEPES buffer (100 mM NaCl, 50 mM HEPES, 10 mM glucose, 5 mM KCl, 2 mM CaCl2, 1 mM MgCl2, pH 7.4), then overlayed with NaCl-HEPES buffer containing 0-30 μM test compound. After a 60 min incubation at room temperature, the test drug containing buffer was aspirated from the cells. Following aspiration, cells were washed once with NaCl-HEPES buffer without drug, then incubated for 30 min at 37° C. with NH4Cl-HEPES buffer (20 mM NH4Cl, 80 mM NaCl, 50 mM HEPES, 5 mM KCl, 2 mM CaCl2, 1 mM MgCl2, pH 7.4) containing 5 μM BCECF-AM. Cells were washed once with Ammonium free, Na^+-free HEPES (100 mM choline, 50 mM HEPES, 10 mM glucose, 5 mM KCl, 2 mM CaCl2, 1 mM MgCl2, pH 7.4) and incubated in the same buffer for 10 minutes at room temperature to lower intracellular pH. NHE-3-mediated recovery of neutral intracellular pH was initiated (10 min after compound washout) by addition of Na-HEPES buffer. […] Changes in intracellular pH were monitored using a FLIPR Tetra® (Molecular Devices, Sunnyvale, Calif.) by excitation at λex 439 to 505 nm, and measuring BCECF fluorescence at λem 538 nm. The initial rate of the fluorescence ratio change was used as a measure of NHE-mediated Na^+/H^+ activity, and reported as the change in fluorescence ratio per minute.

IC50 (NHE3) | Percent Inhibition (NHE3) | SMILES | % FA [1]
 |  | OC[C@H]1O[C@H](OC[C@H]2O[C@H](O[C@]3(CO)O[C@H](CO)[C@@H](O)[C@@H]3O)[C@H](O)[C@@H](O)[C@@H]2O)[C@H](O)[C@@H](O)[C@H]1O [raffinose] | 0.3%
 |  | C=CCOc1ccccc1OCC(O)CNC(C)C (stereo not shown) [ozprenolol] | 97%
 |  | O=C(O)c1cc(/N=N/c2ccc(O)c(C(=O)O)c2)ccc1O [olsalazine] | 2.3%
 |  | CC(=O)Nc1ccc(OCC(O)CNC(C)C)cc1 (stereo not shown) [practolol] | 95%
 |  | NC[C@H]1CC[C@H](C(=O)O)CC1 [tranexamic acid] | 55%
 |  | Cc1ccccc1N1C(=O)c2cc(S(N)(=O)=O)c(Cl)cc2NC1C (stereo not shown) [metolazone, Metolazone, reference compound] | 64%
 |  | CC(C)NCC(O)COc1cccc2[nH]ccc12 (stereo not shown) [pindolol] | 92%
 |  | CCN1CCCC1CNC(=O)c1cc(S(N)(=O)=O)ccc1OC (stereo not shown) [sulpiride] | 36%
 |  | O=C(O)P(=O)(O)O [foscarnet] | 17%
0.501 nM | 106% | N#Cc1cc(Cl)cc2c1C[C@H](N1CCNCC1)[C@H]2Oc1ccc(S(=O)(=O)N[C@H]2CCN(CCOCCNC(=O)NCCCCNC(=O)NCCOCCN3CC[C@H](NS(=O)(=O)c4ccc(O[C@H]5c6cc(Cl)cc(C#N)c6C[C@@H]5N5CCNCC5)c(F)c4)C3)C2)cc1F [C-CN, 3-(2-{2-[(3 S)-3-(4-{[(1S,2S)-6-chloro-4-cyano-2-(piperazin-1-yl)-2,3-dihydro-1H-inden-1-yl]oxy}-3-fluorobenzenesulfonamido)pyrrolidin-1-yl]ethoxy}ethyl)-1-(4-{[(2-{2-[(3S)-3-(4-{[(1S,2S)-6-chloro-4-cyano-2-(piperazin-1-yl)-2,3-dihydro-1H-inden-1-yl]oxy}-3-fluorobenzenesulfonamido)pyrrolidin-1-yl]ethoxy}ethyl)carbamoyl]amino}butyl)urea] | 
 |  | Cc1cc(=O)n(-c2ccccc2)n1C [phenazone] | 97%
 |  | O=C(O)c1cc(/N=N/c2ccc(S(=O)(=O)Nc3ccccn3)cc2)ccc1O [sulfasalazine, reference compound] | 12%
 |  | OC[C@H]1O[C@@H](O[C@@H]2[C@@H](CO)OC(O)(CO)[C@H]2O)[C@H](O)[C@@H](O)[C@H]1O (mixture of isomers) [lactulose, reference compound] | 0.6%
5.01 nM | 99% | CN(C)[C@@H]1CCCN([C@H]2Cc3c(Cl)cc(Cl)cc3[C@@H]2Oc2ccc(S(=O)(=O)NCCOCCOCCNC(=O)NCCCCNC(=O)NCCOCCOCCNS(=O)(=O)c3ccc(O[C@H]4c5cc(Cl)cc(Cl)c5C[C@@H]4N4CCC[C@@H](N(C)C)C4)cc3)cc2)C1 [E-Cl, 3-(2-{2-[2-(4-{[(1S,2S)-4,6-dichloro-2-[(3R)-3-(dimethylamino)piperidin-1-yl]-2,3-dihydro-1H-inden-1-yl]oxy}benzenesulfonamido)ethoxy]ethoxy}ethyl)-1-(4-{[(2-{2-[2-(4-{[(1S,2S)-4,6-dichloro-2-[(3R)-3-(dimethylamino)piperidin-1-yl]-2,3-dihydro-1H-inden-1-yl]oxy}benzenesulfonamido)ethoxy]ethoxy}ethyl)carbamoyl]amino}butyl)urea] | 
2.51 nM | 101% | C[C@@H]1CN([C@H]2Cc3c(Cl)cc(Cl)cc3[C@@H]2Oc2ccc(S(=O)(=O)N[C@H]3CCN(CCOCCNC(=O)NCCCCNC(=O)NCCOCCN4CC[C@H](NS(=O)(=O)c5ccc(O[C@H]6c7cc(Cl)cc(Cl)c7C[C@@H]6N6CCN[C@H](C)C6)cc5)C4)C3)cc2)CCN1 [A-Cl, 3-(2-{2-[(3S)-3-(4-{[(1S,2S)-4,6-dichloro-2-[(3R)-3-methylpiperazin-1-yl]-2,3-dihydro-1H-inden-1-yl]oxy}benzenesulfonamido)pyrrolidin-1-yl]ethoxy}ethyl)-1-(4-{[(2-{2-[(3S)-3-(4-{[(1S,2S)-4,6-dichloro-2-[(3R)-3-methylpiperazin-1-yl]-2,3-dihydro-1H-inden-1-yl]oxy}benzenesulfonamido)pyrrolidin-1-yl]ethoxy}ethyl)carbamoyl]amino}butyl)urea] | 
3.98 nM |  | O=C(NCCCCNC(=O)NCCOCCOCCNS(=O)(=O)c1ccc(O[C@H]2c3cc(Cl)cc(Cl)c3C[C@@H]2N2CCNCC2)c(F)c1)NCCOCCOCCNS(=O)(=O)c1ccc(O[C@H]2c3cc(Cl)cc(Cl)c3C[C@@H]2N2CCNCC2)c(F)c1 [D-Cl, 3-(2-{2-[2-(4-{[(1S,2S)-4,6-dichloro-2-(piperazin-1-yl)-2,3-dihydro-1H-inden-1-yl]oxy}-3-fluorobenzenesulfonamido)ethoxy]ethoxy}ethyl)-1-(4-{[(2-{2-[2-(4-{[(1S,2S)-4,6-dichloro-2-(piperazin-1-yl)-2,3-dihydro-1H-1-inden-1-yl]oxy}-3-fluorobenzenesulfonamido)ethoxy]ethoxy}ethyl)carbamoyl]amino}butyl)urea] | 
2.51 nM | 88% | Cc1cc(S(=O)(=O)NCCOCCOCCNC(=O)NCCCCNC(=O)NCCOCCOCCNS(=O)(=O)c2ccc(O[C@H]3c4cc(Cl)cc(C#N)c4C[C@@H]3N3CCNCC3)c(C)c2)ccc1O[C@H]1c2cc(Cl)cc(C#N)c2C[C@@H]1N1CCNCC1 [F-CN, 3-(2-{2-[2-(4-{[(1S,2S)-6-chloro-4-cyano-2-(piperazin-1-yl)-2,3-dihydro-1H-inden-1-yl]oxy}-3-methylbenzenesulfonamido)ethoxy]ethoxy}ethyl)-1-(4-{[(2-{2-[2-(4-{[(1S,2S)-6-chloro-4-cyano-2-(piperazin-1-yl)-2,3-dihydro-1H-inden-1-yl]oxy}-3-methylbenzenesulfonamido)ethoxy]ethoxy}ethyl)carbamoyl]amino}butyl)urea] | 
3.98 nM | 90% | O=C(NCCCCNC(=O)NCCOCCN1CC[C@H](NS(=O)(=O)c2ccc(O[C@H]3c4cc(Cl)cc(Cl)c4C[C@@H]3N3CCNCC3)c(F)c2)C1)NCCOCCN1CC[C@H](NS(=O)(=O)c2ccc(O[C@H]3c4cc(Cl)cc(Cl)c4C[C@@H]3N3CCNCC3)c(F)c2)C1 [C-Cl, 3-(2-{2-[(3S)-3-(4-{[(1S,2S)-4,6-dichloro-2-(piperazin-1-yl)-2,3-dihydro-1H-inden-1-yl]oxy}-3-fluorobenzenesulfonamido)pyrrolidin-1-yl]ethoxy}ethyl)-1-(4-{[(2-{2-[(3S)-3-(4-{[(1S,2S)-4,6-dichloro-2-(piperazin-1-yl)-2,3-dihydro-1H-inden-1-yl]oxy}-3-fluorobenzenesulfonamido)pyrrolidin-1-yl]ethoxy}ethyl)carbamoyl]amino}butyl)urea] | 
20 nM | 104% | Cc1cc(S(=O)(=O)NCCOCCOCCNC(=O)NCCCCNC(=O)NCCOCCOCCNS(=O)(=O)c2ccc(O[C@H]3c4cc(Cl)cc(Cl)c4C[C@@H]3N3CCNCC3)c(C)c2)ccc1O[C@H]1c2cc(Cl)cc(Cl)c2C[C@@H]1N1CCNCC1 [F-Cl, 3-(2-{2-[2-(4-{[(1S,2S)-4,6-dichloro-2-(piperazin-1-yl)-2,3-dihydro-1H-inden-1-yl]oxy}-3-methylbenzenesulfonamido)ethoxy]ethoxy}ethyl)-1-(4-{[(2-{2-[2-(4-{[(1S,2S)-4,6-dichloro-2-(piperazin-1-yl)-2,3-dihydro-1H-inden-1-yl]oxy}-3-methylbenzenesulfonamido)ethoxy]ethoxy}ethyl)carbamoyl]amino}butyl)urea] | 
